As a reminder, the bioavailability is dose-corrected exposure relative to a reference, in per cent. What is called AUC(0-inf) is total exposure, with the tail of the curve extrapolated. A high value points to more exposure. The term Cmax denotes the peak of the concentration-time curve. Broadly, the Tmax is the time at which the peak concentration occurs. What is called half-life is the time in which the quantity being followed falls by half.

This series in a line: Single dose subcutaneous pharmacokinetics in CD-1 mice. Type of series: in vivo. The note with it: mouse, plasma, sc, 10 mg/kg single dose. The procedure: Single Dose Subcutaneous Pharmacokinetics in CD-1 Mice The subcutaneous bioavailability was determined in the following study: three CD-1 mice were dosed by subcutaneous injection (10 mg/kg) and plasma was collected at the following hourly time points (0.25, 0.5, 1, 2, 4, 8, and 24 h). Plasma compound concentations were determined by HPLC.

Regarding `Cc1ncsc1-c1ccc([C@H](C)NC(=O)[C@@H]2C[C@@H](O)CN2C(=O)[C@@H](NC(=O)COCCOCCOCCOc2ccc(Cn3c(-c4ccc(O)cc4)c(C)c4cc(O)ccc43)cc2)C(C)(C)C)cc1` [Example #5, (2S,4R)-4-hydroxy-1-[(2S)-2-[1-(4-[[5-hydroxy-2-(4-hydroxyphenyl)-3-methyl-1H-indol-1-yl]methyl]phenyl)-1,4,7,10-tetraoxadodecan-12-amido]-3,3-dimethylbutanoyl]-N-[(1S)-1-[4-(4-methyl-1,3-thiazol-5-yl)phenyl]ethyl]pyrrolidine-2-carboxamide], the total exposure AUC(0-inf) stood at 8280 ng·h/mL, the highest level (Cmax) was 687 ng/mL, the Tmax came out at 4 h and the half-life was 12 h. For the same compound, the bioavailability (read-out: F % (subcutaneous bioavailability)) stood at 100%.
